Data from ChEMBL document CHEMBL1201862, “PubChem BioAssay data set” (2004).
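Assay format: 96-well plates, 48-hour exposure. GI50 = concentration required for 50% inhibition of growth.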 Activity calls are given as the source filed them. Cut-off read from the data, not from the text of the source: active = GI50 up to about 1.1 µM and inactive = higher.

Experiments:
Test in all cases: NCI anticancer screen, dose series, 48 h
SK-MEL-28 = test system: SK-MEL-28
SK-OV-3 = test system: SK-OV-3
HOP-18 = test system: HOP-18
SNB-75 = test system: SNB-75
DLD-1 = test system: DLD-1
NCI-H460 = test system: NCI-H460
Malme-3M = test system: Malme-3M
LOX IMVI = test system: LOX IMVI
DMS-114 = test system: DMS-114
SNB-78 = test system: SNB-78
SF-295 = test system: SF-295
SF-268 = test system: SF-268
NCI-H226 = test system: NCI-H226
OVCAR-5 = test system: OVCAR-5
CCRF-CEM = test system: CCRF-CEM
UACC-62 = test system: UACC-62
TK-10 = test system: TK-10
RXF 631 = test system: RXF 631
HOP-62 = test system: HOP-62
IGROV-1 = test system: IGROV-1
SR = test system: SR
SN12C = test system: SN12C
OVCAR-8 = test system: OVCAR-8
OVCAR-3 = test system: OVCAR-3
UACC-257 = test system: UACC-257
DMS-273 = test system: DMS-273
HT-29 = test system: HT-29
HCC 2998 = test system: HCC 2998
NCI-H23 = test system: NCI-H23
RXF 393 = test system: RXF 393
SK-MEL-5 = test system: SK-MEL-5
SF-539 = test system: SF-539
786-0 = test system: 786-0
HCT-116 = test system: HCT-116
A498 = test system: A498
KM-20L2 = test system: KM-20L2
SNB-19 = test system: SNB-19
COLO 205 = test system: COLO 205
M19-MEL = test system: M19-MEL
LXFL 529 = test system: LXFL 529
EKVX = test system: EKVX
OVCAR-4 = test system: OVCAR-4
KM12 = test system: KM12
HOP-92 = test system: HOP-92
HCT-15 = test system: HCT-15
K562 = test system: K562
M14 = test system: M14
A549 = test system: A549
SW-620 = test system: SW-620
UO-31 = test system: UO-31
HL-60 = test system: HL-60
MOLT-4 = test system: MOLT-4
NCI-H522 = test system: NCI-H522
ACHN = test system: ACHN
U-251 = test system: U-251
RPMI-8226 = test system: RPMI-8226

In the case of `O=C1N/C(=C\[N+](=O)[O-])c2ccccc21`, the GI50 (SK-MEL-28) is reported as > 100 µM (inactive), the GI50 (SK-OV-3) is reported as > 100 µM (inactive) and the GI50 (HOP-18) is reported as > 100 µM (inactive). The GI50 (SNB-75) was 25.9 µM (inactive), the GI50 (DLD-1) was > 100 µM (inactive) and the GI50 (NCI-H460) was > 100 µM (inactive). For the same compound, the GI50 (Malme-3M) was > 100 µM (inactive), the GI50 (LOX IMVI) was > 100 µM (inactive) and the GI50 (DMS-114) was > 100 µM (inactive). The GI50 (SNB-78) was > 100 µM (inactive), the GI50 (SF-295) was > 100 µM (inactive) and the GI50 (SF-268) was > 100 µM (inactive). The GI50 (NCI-H226) was > 100 µM (inactive), the GI50 (OVCAR-5) was > 100 µM (inactive) and the GI50 (CCRF-CEM) was > 100 µM (inactive). The GI50 (UACC-62) was > 100 µM (inactive), the GI50 (TK-10) was > 100 µM (inactive) and the GI50 (RXF 631) was > 100 µM (inactive). For the same compound, the GI50 (HOP-62) was > 100 µM (inactive), the GI50 (IGROV-1) was > 100 µM (inactive) and the GI50 (SR) was > 100 µM (inactive). For the same compound, the GI50 (SN12C) was > 100 µM (inactive), the GI50 (OVCAR-8) was > 100 µM (inactive) and the GI50 (OVCAR-3) was > 100 µM (inactive). For the same compound, the GI50 (UACC-257) was > 100 µM (inactive), the GI50 (DMS-273) was > 100 µM (inactive) and the GI50 (HT-29) was > 100 µM (inactive). For the same compound, the GI50 (HCC 2998) was > 100 µM (inactive), the GI50 (NCI-H23) was > 100 µM (inactive) and the GI50 (RXF 393) was > 100 µM (inactive). For the same compound, the GI50 (SK-MEL-5) was > 100 µM (inactive), the GI50 (SF-539) was > 100 µM (inactive) and the GI50 (786-0) was > 100 µM (inactive). The GI50 (HCT-116) was > 100 µM (inactive), the GI50 (A498) was > 100 µM (inactive) and the GI50 (KM-20L2) was > 100 µM (inactive). The GI50 (SNB-19) was > 100 µM (inactive), the GI50 (COLO 205) was > 100 µM (inactive) and the GI50 (M19-MEL) was > 100 µM (inactive). The GI50 (LXFL 529) was > 100 µM (inactive), the GI50 (EKVX) was > 100 µM (inactive) and the GI50 (OVCAR-4) was > 100 µM (inactive). The GI50 (KM12) was > 100 µM (inactive), the GI50 (HOP-92) was > 100 µM (inactive) and the GI50 (HCT-15) was over 100 µM. The GI50 (K562) was > 100 µM (inactive), the GI50 (M14) was > 100 µM (inactive) and the GI50 (A549) was > 100 µM (inactive). For the same compound, the GI50 (SW-620) was > 100 µM (inactive), the GI50 (UO-31) was > 100 µM (inactive) and the GI50 (HL-60) was > 100 µM (inactive). The GI50 (MOLT-4) was > 100 µM (inactive), the GI50 (NCI-H522) was > 100 µM (inactive) and the GI50 (ACHN) was > 100 µM (inactive). For the same compound, the GI50 (U-251) was > 100 µM (inactive) and the GI50 (RPMI-8226) was > 100 µM (inactive).
